According to patent US8309577B2, “Quinuclidine compounds as α-7 nicotinic acetylcholine receptor ligands” (Bristol-Myers Squibb Company, priority 2008, dated 2012):

Molecular target: T1, α-7 nicotinic acetylcholine receptor channel expressed in HEK 293 cells (Rattus norvegicus, UniProt Q05941)
T1 construct: expressed in transfected cells
Assay: Ca2+-sensitive fluorescence-based FLIPR assay, α7 nicotinic ACh receptor channel function (agonist)
Format: cell-based
Settings: not given
Outline: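 Potency and efficacy derived from kinetic FLIPR Ca²⁺-flux fluorescence, recorded 3 min after compound addition in Hanks buffer following a 10 s baseline.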

T1 sequence (Q05941 23-502): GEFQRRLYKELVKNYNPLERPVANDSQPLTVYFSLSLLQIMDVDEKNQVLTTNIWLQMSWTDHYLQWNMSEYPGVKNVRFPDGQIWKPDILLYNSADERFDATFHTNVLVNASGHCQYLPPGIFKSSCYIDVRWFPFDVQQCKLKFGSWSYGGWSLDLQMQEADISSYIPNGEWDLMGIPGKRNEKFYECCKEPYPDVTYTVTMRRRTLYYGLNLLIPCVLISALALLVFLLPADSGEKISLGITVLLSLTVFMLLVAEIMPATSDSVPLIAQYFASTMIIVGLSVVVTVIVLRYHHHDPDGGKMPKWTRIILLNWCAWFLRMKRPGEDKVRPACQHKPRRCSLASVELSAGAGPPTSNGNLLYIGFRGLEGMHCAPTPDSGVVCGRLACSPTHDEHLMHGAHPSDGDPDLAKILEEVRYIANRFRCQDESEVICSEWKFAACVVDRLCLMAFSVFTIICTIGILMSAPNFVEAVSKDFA

SMILES | EC50
c1ccc2ncc(NC3=NCC4(CN5CCC4CC5)O3)cc2c1 (stereo not shown) [Example 73] | 7550 nM
c1ccc(-c2cncc(NC3=NC[C@@]4(CN5CCC4CC5)O3)c2)cc1 [Example 28, (R)—N-(5-Phenylpyridin-3-yl)-4H-1′-azaspiro[oxazole-5,3′-bicyclo[2.2.2]octan]-2-amine] | 4010 nM

Same assay, conditions: FLIPR α7 (EC50, nM), Table 1; HEK 293 cells, agonist Ca2+ flux

SMILES | EC50
COc1ccc(-c2ccnc(NC3=NC[C@@]4(CN5CCC4CC5)O3)n2)cc1 [Example 166] | 11 nM
FC(F)(F)c1ccc2nc(NC3=NCC4(CN5CCC4CC5)O3)sc2c1 (stereo not shown) [Example 48] | 790 nM
CC(=O)Nc1ccc2nc(NC3=NCC4(CN5CCC4CC5)O3)sc2c1 (stereo not shown) [Example 90] | 130 nM

Same assay, conditions: FLIPR α7 (EC50, nM), Table Ib; HEK 293 cells, agonist Ca2+ flux

SMILES | EC50
c1ccc(-c2ccnc(NC3=NC[C@@]4(CN5CCC4CC5)O3)c2)cc1 [Example 302, (R)—N-(4-Phenylpyridin-2-yl)-4H-1′-azaspiro[oxazole-5,3′-bicyclo[2.2.2]octan]-2-amine] | 9 nM
COc1ccc(-c2ccnc(NC3=NC[C@@]4(CN5CCC4CC5)O3)c2)cn1 [Example 298, (R)—N-(6-Methoxy-3,4′-bipyridin-2′-yl)-4H-1′-azaspiro[oxazole-5,3′-bicyclo[2.2.2]octan]-2-amine] | 25 nM
Clc1cncc(-c2ccnc(NC3=NC[C@@]4(CN5CCC4CC5)O3)c2)c1 [Example 297, (R)—N-(5-Chloro-3,4′-bipyridin-2′-yl)-4H-1′-azaspiro[oxazole-5,3′-bicyclo[2.2.2]octan]-2-amine] | 35 nM

Same assay, conditions: FLIPR α7 activity rating (EC50, nM), Table 1; HEK 293 cells, agonist Ca2+ flux

SMILES | EC50
c1ccc2ncc(NC3=NCC4(CN5CCC4CC5)O3)cc2c1 (stereo not shown) [Example 73] | 1000 to 100000 nM
O=C1CCCc2nc(NC3=NC[C@@]4(CN5CCC4CC5)O3)ncc21 [Example 204] | 100 to 1000 nM
CSc1cc(NC2=NC[C@@]3(CN4CCC3CC4)O2)ncn1 [Example 261, (R)—N-(6-(Methylthio)pyrimidin-4-yl)-4H-1′-azaspiro[oxazole-5,3′-bicyclo[2.2.2]octan]-2-amine] | < 100 nM
c1ccc(-c2cnc(NC3=NCC4(CN5CCC4CC5)O3)s2)cc1 (single isomer, unassigned) [Example 4a] | 1000 to 100000 nM
c1ccc2cc(-c3cc(NC4=NC[C@@]5(CN6CCC5CC6)O4)ncn3)ccc2c1 [Example 44, (R)—N-(6-(Naphthalen-2-yl)pyrimidin-4-yl)-4H-1′-azaspiro[oxazole-5,3′-bicyclo[2.2.2]octan]-2-amine] | 100 to 1000 nM
c1cn2nc(NC3=NC[C@@]4(CN5CCC4CC5)O3)nc2cn1 [Example 270, (R)—N-([1,2,4]Triazol[1,5-a]pyrazin-2-yl)-4H-1′-azaspiro[oxazole-5,3′-bicyclo[2.2.2]octan]-2-amine] | < 100 nM
Brc1ccc2nc(NC3=NC[C@@]4(CN5CCC4CC5)O3)ncc2c1 [Example 168] | < 100 nM
Fc1ccc2sc(NC3=NCC4(CN5CCC4CC5)O3)nc2c1 (stereo not shown) [Example 47] | < 100 nM
Cc1ccc(NC2=NCC3(CN4CCC3CC4)O2)nn1 (racemic) [Example 124] | 1000 to 100000 nM
c1nc(N2CCCC2)cnc1NC1=NC[C@@]2(CN3CCC2CC3)O1 [Example 34, (R)—N-(5-(Pyrrolidin-1-yl)pyrazin-2-yl)-4H-1′-azaspiro[oxazole-5,3′-bicyclo[2.2.2]octan]-2-amine] | 1000 to 100000 nM
CC(C)(C)c1cc(NC2=NCC3(CN4CCC3CC4)O2)ncn1 (racemic) [Example 121] | 1000 to 100000 nM
Cc1ccc2nc(NC3=NCC4(CN5CCC4CC5)O3)sc2c1 (single isomer, unassigned) [Example 12b, N-(6-Methylbenzo[d]thiazol-2-yl)-4H-1′-azaspiro[oxazole-5,3′-bicyclo[2.2.2]octan]-2-amine] | 1000 to 100000 nM
Fc1cccc2sc(NC3=NCC4(CN5CCC4CC5)O3)nc12 (stereo not shown) [Example 50] | < 100 nM
Cc1ccc2ncc(NC3=NC[C@@]4(CN5CCC4CC5)O3)nc2c1 [Example 243, (R)—N-(7-Methylquinoxalin-2-yl)-4H-1′-azaspiro[oxazole-5,3′-bicyclo[2.2.2]octan]-2-amine] | 1000 to 100000 nM
Cc1cc(NC2=NC[C@@]3(CN4CCC3CC4)O2)ncc1Cl [Example 253, (R)—N-(5-Chloro-4-methylpyridin-2-yl)-4H-1′-azaspiro[oxazole-5,3′-bicyclo[2.2.2]octan]-2-amine] | < 100 nM
c1cc(C2CC2)nc(NC2=NC[C@@]3(CN4CCC3CC4)O2)n1 [Example 209] | < 100 nM
COc1ccc(-c2ccnc(NC3=NC[C@@]4(CN5CCC4CC5)O3)n2)cc1 [Example 166] | < 100 nM
FC(F)(F)c1ccc2nc(NC3=NCC4(CN5CCC4CC5)O3)sc2c1 (stereo not shown) [Example 48] | 100 to 1000 nM
FC(F)(F)COc1cc(NC2=NC[C@@]3(CN4CCC3CC4)O2)ncn1 [Example 228, (R)—N-(6-(2,2,2-Trifluoroethoxy)pyrimidin-4-yl)-4H-1′-azaspiro[oxazole-5,3′-bicyclo[2.2.2]octan]-2-amine] | < 100 nM
CC(=O)Nc1ccc2nc(NC3=NCC4(CN5CCC4CC5)O3)sc2c1 (stereo not shown) [Example 90] | 100 to 1000 nM
Brc1ccc2cc(NC3=NC[C@@]4(CN5CCC4CC5)O3)ncc2c1 [Example 293, (R)—N-(7-Bromoisoquinolin-3-yl)-4H-1′-azaspiro[oxazole-5,3′-bicyclo[2.2.2]octan]-2-amine] | 100 to 1000 nM
COc1ccc2c(c1)nc(NC1=NC[C@@]3(CN4CCC3CC4)O1)n2C [Example 208] | 1000 to 100000 nM

SMILES | EC50
Clc1cc(Cl)c2cnc(NC3=NC[C@@]4(CN5CCC4CC5)O3)cc2c1 [Example 279, (R)—N-(6,8-Dichloroisoquinolin-3-yl)-4H-1′-azaspiro[oxazole-5,3′-bicyclo[2.2.2]octan]-2-amine] | 100 to 1000 nM
O=C(c1ccc2nc(NC3=NCC4(CN5CCC4CC5)O3)sc2c1)N1CCCCC1 (stereo not shown) [Example 58] | 1000 to 100000 nM
N#Cc1cnc(NC2=NC[C@@]3(CN4CCC3CC4)O2)s1 [Example 275, (R)-2-(4H-1′-Azaspiro[oxazole-5,3′-bicyclo[2.2.2]octan]-2-ylamino)thiazole-5-carbonitrile] | 100 to 1000 nM
Clc1ccnc(NC2=NC[C@@]3(CN4CCC3CC4)O2)c1 [Example 215] | < 100 nM
c1cnc2cc(NC3=NCC4(CN5CCC4CC5)O3)ccc2n1 (stereo not shown) [Example 75] | 1000 to 100000 nM
c1ccc(-c2cncc(NC3=NC[C@@]4(CN5CCC4CC5)O3)c2)cc1 [Example 28, (R)—N-(5-Phenylpyridin-3-yl)-4H-1′-azaspiro[oxazole-5,3′-bicyclo[2.2.2]octan]-2-amine] | 1000 to 100000 nM
c1ccc(-c2ccc(NC3=NC[C@@]4(CN5CCC4CC5)O3)nn2)cc1 [Example 249, (R)—N-(6-Phenylpyridazin-3-yl)-4H-1′-azaspiro[oxazole-5,3′-bicyclo[2.2.2]octan]-2-amine] | 1000 to 100000 nM
Brc1cc(NC2=NC[C@@]3(CN4CCC3CC4)O2)ccn1 [Example 154] | 1000 to 100000 nM
Brc1ccc2nc(NC3=NCC4(CN5CCC4CC5)O3)sc2c1 (stereo not shown) [Example 61] | 100 to 1000 nM
c1ccc(COc2ccc3nc(NC4=NC[C@@]5(CN6CCC5CC6)O4)sc3n2)cc1 [Example 236, (R)—N-(5-(Benzyloxy)thiazolo[5,4-b]pyridin-2-yl)-4H-1′-azaspiro[oxazole-5,3′-bicyclo[2.2.2]octan]-2-amine] | 1000 to 100000 nM
Clc1ccc(NC2=NC[C@@]3(CN4CCC3CC4)O2)nc1Cl [Example 251, (R)—N-(5,6-Dichloropyridin-2-yl)-4H-1′-azaspiro[oxazole-5,3′-bicyclo[2.2.2]octan]-2-amine] | < 100 nM
c1ccc2[nH]c(NC3=NCC4(CN5CCC4CC5)O3)nc2c1 (single isomer, unassigned) [Example 8b, N-(1H-benzo[d]imidazol-2-yl)-4H-1′-azaspiro[oxazole-5,3′-bicyclo[2.2.2]octan]-2-amine] | 1000 to 100000 nM
Clc1ccc2nc(NC3=NCC4(CN5CCC4CC5)O3)sc2c1 (stereo not shown) [Example 9, N-(6-Chlorobenzo[d]thiazol-2-yl)-4H-1′-azaspiro[oxazole-5,3′-bicyclo[2.2.2]octan]-2-amine] | 100 to 1000 nM
Fc1ccc2nc(NC3=NC[C@@]4(CN5CCC4CC5)O3)ccc2c1 [Example 140] | 100 to 1000 nM
c1ccn2c(NC3=NC[C@@]4(CN5CCC4CC5)O3)nnc2c1 [Example 262, (R)—N-([1,2,4]Triazol[4,3-a]pyridine-3-yl)-4H-1′-azaspiro[oxazole-5,3′-bicyclo[2.2.2]octan]-2-amine] | 1000 to 100000 nM
FC(F)(F)Oc1ccc2[nH]nc(NC3=NC[C@@]4(CN5CCC4CC5)O3)c2c1 [Example 183] | < 100 nM
COc1ccc2nc(NC3=NCC4(CN5CCC4CC5)O3)sc2c1 (stereo not shown) [Example 5, N-(6-Methoxybenzo[d]thiazol-2-yl)-4H-1′-azaspiro[oxazole-5,3′-bicyclo[2.2.2]octan]-2-amine] | 100 to 1000 nM
COc1ccc(-c2cnc(NC3=NC[C@@]4(CN5CCC4CC5)O3)nc2)cc1 [Example 151] | 100 to 1000 nM
CC(C)c1nc(NC2=NC[C@@]3(CN4CCC3CC4)O2)ncc1Br [Example 229, (R)—N-(5-Bromo-4-isopropylpyrimidin-2-yl)-4H-1′-azaspiro[oxazole-5,3′-bicyclo[2.2.2]octan]-2-amine] | < 100 nM
Clc1cccc2sc(NC3=NCC4(CN5CCC4CC5)O3)nc12 (single isomer, unassigned) [Example 7b] | < 100 nM
COc1ccc2nc(NC3=NCC4(CN5CCC4CC5)O3)[nH]c2c1 (stereo not shown) [Example 76] | 100 to 1000 nM

Same assay, conditions: FLIPR α7 activity rating (EC50, nM), Table Ib; HEK 293 cells, agonist Ca2+ flux

SMILES | EC50
c1ccc(-c2ccnc(NC3=NC[C@@]4(CN5CCC4CC5)O3)c2)cc1 [Example 302, (R)—N-(4-Phenylpyridin-2-yl)-4H-1′-azaspiro[oxazole-5,3′-bicyclo[2.2.2]octan]-2-amine] | < 100 nM
Cc1nc(NC2=NC[C@@]3(CN4CCC3CC4)O2)cc2cc(Cl)ccc12 [Example 326, (R)—N-(6-Chloro-1-methylisoquinolin-3-yl)-4H-1′-azaspiro[oxazole-5,3′-bicyclo[2.2.2]octan]-2-amine] | 100 to 1000 nM
CSc1ccc(-c2cc(NC3=NC[C@@]4(CN5CCC4CC5)O3)ncn2)cn1 [Example 329, (R)—N-(6-(6-(Methylthio)pyridin-3-yl)pyrimidin-4-yl)-4H-1′-azaspiro[oxazole-5,3′-bicyclo[2.2.2]octan]-2-amine] | < 100 nM
Fc1ccc(-c2cc(NC3=NC[C@@]4(CN5CCC4CC5)O3)ncn2)cn1 [Example 331, (R)—N-(6-(6-Fluoropyridin-3-yl)pyrimidin-4-yl)-4H-1′-azaspiro[oxazole-5,3′-bicyclo[2.2.2]octan]-2-amine] | < 100 nM
COc1ccc(-c2ccnc(NC3=NC[C@@]4(CN5CCC4CC5)O3)c2)cn1 [Example 298, (R)—N-(6-Methoxy-3,4′-bipyridin-2′-yl)-4H-1′-azaspiro[oxazole-5,3′-bicyclo[2.2.2]octan]-2-amine] | < 100 nM
Clc1cncc(-c2ccnc(NC3=NC[C@@]4(CN5CCC4CC5)O3)c2)c1 [Example 297, (R)—N-(5-Chloro-3,4′-bipyridin-2′-yl)-4H-1′-azaspiro[oxazole-5,3′-bicyclo[2.2.2]octan]-2-amine] | < 100 nM
Fc1cccc(-c2cc(NC3=NC[C@@]4(CN5CCC4CC5)O3)ncn2)c1 [Example 315, (R)—N-(6-(3-Fluorophenyl)pyrimidin-4-yl)-4H-1′-azaspiro[oxazole-5,3′-bicyclo[2.2.2]octan]-2-amine] | < 100 nM
